No end group written: not given here.
Target: T1, amyloid 1-40 fibrils (fibrillar BAP 1-40) (Homo sapiens, UniProt P05067)
T1 construct: used to immobilise fibrillar Beta-Amyloid Protein (BAP 1-40); purchased Biosource 03-138 (BAP 1-40); 03-243 (biotinylated BAP 1-40)
Assay: Determination of amyloid binding (scintillation proximity assay beads coated with fibrillar BAP 1-40)
Conditions: SPA-BAP beads, 180 minutes at room temperature, equimolar amounts, SPA-NSB counts subtracted; 125I-BAP binding taken as 100%
Protocol: The binding of Compounds was determined compared to the ability of ^125I-beta amyloid protein 1-40 (^125I-BAP 1-40, Amersham Biosciences IM294)) to bind to amyloid 1-40 fibrils. Amyloid binding was essentially performed as follows.
Three fresh buffer stocks were prepared for experiments: Buffer 1, 50 mM HEPES/0.1% Bovine Serum Albumin (BSA) pH 7.5; Buffer 2, 50 mM HEPES/0.1% BSA/400 μM ZnCl2 pH 7.5; Buffer 3, 50 mM HEPES/0.1% BSA/100 μM ZnCl2 pH 7.5.
Streptavidin coated scintillation proximity assay beads (SA-SPA beads, Amersham Biosciences) were used to immobilise fibrillar Beta-Amyloid Protein (BAP 1-40). Amyloid coated beads (SPA-BAP) were prepared by incubating 250 μl SA-SPA beads (100 mg/ml) with 250 μl Buffer 2, 425 μl Buffer 1, 50 μl biotinylated BAP 1-40 (0.5 mg/ml, Biosource 03–243), 25 μl BAP 1-40 (10 mg/ml, Biosource 03–138). Non-specific binding SPA beads (SPA-NSB) were prepared to assess the binding of compounds to SPA beads with no associated BAP 1-40 fibrils in the following incubation: 250 μl SA-SPA beads (100 mg/ml) with 250 μl Buffer 2, 500 μl Buffer 1.
SPA-BAP and SPA-NSB incubations were left for 24 hours at room temperature and then spun 1.5 ml tubes (eppendorf, Merk, 306/0421/12) for 2 minutes at 1000×g. The supernatants were removed and the beads were washed twice by resuspending them in 1 ml Buffer 3 followed by centrifugation for 2 minutes at 1000×g. Finally, washed SPA-BAP and SPA-NSB beads were resuspended in 1 ml Buffer 3.
Amyloid binding of ^125I-BAP 1-40 and test compounds was performed in triplicate in 0.5 ml tubes (eppendorf, Merk, 306/0421/02) by adding 50 μl SPA-BAP beads to 25 μl Buffer 2 and 25 μl labelled compound (^125I-BAP 1-40 or test compound). Tubes were then incubated for 180 minutes at room temperature with shaking, followed by centrifugation for 2 minutes at 1000×g. The supematants were removed and SPA-BAP pellet washed twice with 300 μl Buffer 3 containing 1% TWEEN-20 (Sigma, P7949). Non-specific binding for labelled compounds to the SPA beads was determined using incubations as described above but by substituting SPA-BAP beads with SPA-NSB beads. Radioactivity associated with the washed SPA bead pellets was then determined.
The affinity of labelled compounds for fibrillar BAP 1-40 was estimated by subtracting SPA-NSB associated counts from SPA-BAP associated counts. The binding of labelled compounds was then compared to ^125I-BAP binding, which was taken as being 100%.
In these experiments, ^125I-BAP 1-40 or test compounds were added in equimolar amounts.

T1 sequence (P05067 672-711): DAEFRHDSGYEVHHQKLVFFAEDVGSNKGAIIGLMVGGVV

Amyloid binding (% of 125I-BAP 1-40) [%]	Molecule
21	^125I-KKLVFFA (BAP 15-21): 125I-labelled BAP 15–21 sequence (Amersham Biosciences), responsible for the binding of BAP to itself (also: 125I label) [reference compound]
100	^125I-BAP 1-40: 125I-beta amyloid protein 1-40, Amersham Biosciences IM294; reference whose binding to amyloid fibrils is taken as 100% [reference compound]
15	CCN(CC)CCCOc1ccc(C(=O)c2c(-c3ccc(OCC(=O)NCCN(CCNC(C)(C)/C(C)=N/O)CCNC(C)(C)/C(C)=N/O)cc3)oc3ccc(Cl)cc23)cc1 [Example 2(vii) Pn216 conjugated]
23	CCN(CC)CCOc1ccc(C(=O)c2c(-c3ccc(OCC(=O)NCCN(CCNC(C)(C)/C(C)=N\O)CCNC(C)(C)/C(C)=N\O)cc3)oc3ccc(Cl)cc23)cc1 [Example 1(vii) Pn216 conjugated]
40	C/C(=N\O)C(C)(C)NCCN(CCNC(=O)COc1ccc(-c2cc3cc(Cl)ccc3o2)cc1)CCNC(C)(C)/C(C)=N/O [Example 8(iii) Pn216 conjugated]

From patent US7173061B2, “Compounds for imaging alzheimer's disease” (GE Healthcare Limited, priority 2001, dated 2007)
